From US8586613B2, “Pyridinium and quinolinium derivatives” (Universidad de Granada, priority 2004, dated 2013)
Like-named read-outs stand apart in the source and are kept apart here.

Experiments:
Human ChoK = molecular target: T1, Human ChoK (Homo sapiens, UniProt P35790); assay: Ex vivo assay of the activity of human ChoK (recombinant choline kinase expressed in E. coli); assay type: biochemical
T1 construct: made in house; host or cells: E. coli
Method: Recombinant choline kinase expressed in E. coli in the buffer assay (100 mM Tris-HCl pH 8.0, 100 mM MgCl2, 10 mM ATP and 200 μM of choline in the presence of methyl[^14C]-choline chloride (50-60 μCi/mmol)) was used for the ex vivo assays. […] The samples were washed with diethyl ether saturated with water and were lyophilized. The hydrophilic choline derivatives were resolved in thin layer chromatography plates according to a described process [Ramírez, A., Penalva, V., Lucas, L., Lacal, J. C.

HT-29 cells = assay: HT-29 cell proliferation assay (Crystal Violet); assay type: cell-based, human; details: six days of treatment
Method: The HT-29 cells were seeded in 24-well plates (35×10^3 cells/well) and were incubated for 24 hours. Then the cells were treated with different concentrations of ChoK inhibitors in the usual culture medium. Three days later, the wells were aspirated and both fresh medium and more amount of drug were added, and the cells were maintained for three more days. The quantification of the remaining cells in each well was carried out by means of the Crystal Violet method [Gillies, R. J., Didier, N., Denton, M. Anal. Biochem. 159, 109-113 (1986)], with some modifications [Hernández-Alcoceba, R., Saniger, L., Campos, J., Núñez, M. C., Khaless, F., Gallo, M. Á., Espinosa, A., Lacal, J. C. Oncogene, 15, 2289-2301 (1997)]. Briefly, the cells were washed with TD buffer and fixed with 1% glutaraldehyde for 15 minutes. After washing again with TD, the cell nuclei were coloured with 0.1% Crystal Violet for at least 30 minutes and washed three times with distilled water. The adsorbed colouring was resuspended in 10% acetic acid and the absorbance at 595 nm was determined in a spectrometer. […] This value determined by iterative curve adjustment. Two values are determined for each point of the curve, the experiment was repeated two or three times and the mean values were estimated. In the few cases in which the two values differed more than 50%, a third experiment was carried out to determine the real value. The IC50 value as a potency measurement is used to relate the biological activity of the compounds with their chemical structure.

[1] = recombinant human ChoK, 37° C., 30 minutes

T1 sequence (P35790 whole entry): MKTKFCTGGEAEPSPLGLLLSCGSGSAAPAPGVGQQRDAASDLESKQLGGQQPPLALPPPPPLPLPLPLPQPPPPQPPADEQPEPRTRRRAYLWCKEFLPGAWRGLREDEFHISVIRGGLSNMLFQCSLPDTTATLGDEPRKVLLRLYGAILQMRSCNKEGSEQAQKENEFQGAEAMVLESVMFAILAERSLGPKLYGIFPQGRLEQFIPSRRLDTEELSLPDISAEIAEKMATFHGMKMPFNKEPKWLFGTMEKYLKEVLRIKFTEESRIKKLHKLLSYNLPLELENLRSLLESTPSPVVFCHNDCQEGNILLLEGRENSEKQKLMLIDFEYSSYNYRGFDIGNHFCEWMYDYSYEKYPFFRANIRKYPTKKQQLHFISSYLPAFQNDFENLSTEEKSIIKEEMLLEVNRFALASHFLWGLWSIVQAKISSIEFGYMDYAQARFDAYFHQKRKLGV

CN(c1ccc(Cl)cc1)c1cc[n+](Cc2cccc(-c3cccc(C[n+]4ccc(N(C)c5ccc(Cl)cc5)c5ccc(Cl)cc54)c3)c2)c2cc(Cl)ccc12 [Compound 6, 1,1′-(biphenyl-3,3′-diylmethylene)bis[4-(4-chloro-N-methylanilino)-7-chloroquinolinium]dibromide]
IC50 (Human ChoK; [1]): 5.7 µM | IC50 (HT-29 cells; Homo sapiens, 144 h): 1.9 µM

CN(C)c1cc[n+](Cc2cccc(-c3cccc(C[n+]4ccc(N(C)C)c5ccc(Cl)cc54)c3)c2)c2cc(Cl)ccc12 [EC3, reference compound]
IC50 (Human ChoK; [1]): 9.6 µM | IC50 (HT-29 cells; Homo sapiens, 144 h): 0.7 µM

1,1′-(benzene-1,3-diylmethylene)bis[4-(4-chloro-N-methylanilino)pyridinium]dibromide [Compound 1]
IC50 (Human ChoK; [1]): 5.7 µM | IC50 (HT-29 cells): 3.3 µM

CN(c1ccc(Cl)cc1)c1cc[n+](Cc2ccc(CCc3ccc(C[n+]4ccc(N(C)c5ccc(Cl)cc5)c5ccc(Cl)cc54)cc3)cc2)c2cc(Cl)ccc12 [Compound 10, 1,1′-[ethylenebis(benzene-1,4-diylmethylene)]bis[4-(4-chloro-N-methylanilino)-7-chloroquinolinium]dibromide]
IC50 (Human ChoK; [1]): 5.7 µM | IC50 (HT-29 cells; Homo sapiens, 144 h): 0.8 µM

CN(c1ccc(Cl)cc1)c1cc[n+](Cc2ccc(CCc3ccc(C[n+]4ccc(N(C)c5ccc(Cl)cc5)c5ccccc54)cc3)cc2)c2ccccc12 [Compound 9, 1,1′-[ethylenebis(benzene-1,4-diylmethylene)]bis[4-(4-chloro-N-methylanilino)quinolinium]dibromide]
IC50 (Human ChoK; [1]): 4.8 µM | IC50 (HT-29 cells; Homo sapiens, 144 h): 0.7 µM

CN(c1ccc(Cl)cc1)c1cc[n+](Cc2ccc(-c3ccc(C[n+]4ccc(N(C)c5ccc(Cl)cc5)c5ccc(Cl)cc54)cc3)cc2)c2cc(Cl)ccc12 [Compound 8, 1,1′-(biphenyl-4,4′-diylmethylene)bis[4-(4-chloro-N-methylanilino)-7-chloroquinolinium]dibromide]
IC50 (Human ChoK; [1]): 11.4 µM | IC50 (HT-29 cells; Homo sapiens, 144 h): 1.2 µM

c1cc(C[n+]2ccc(N3CCCCC3)cc2)cc(-c2cccc(C[n+]3ccc(N4CCCCC4)cc3)c2)c1 [EC2, reference compound]
IC50 (Human ChoK): 1.9 µM | IC50 (HT-29 cells; Homo sapiens, 144 h): 1.6 µM

CN(c1ccccc1)c1cc[n+](Cc2cccc(-c3cccc(C[n+]4ccc(N(C)c5ccccc5)cc4)c3)c2)cc1.[Br-].[Br-] [Compound 2, 1,1′-(biphenyl-3,3′-diylmethylene)bis[4-(N-methylanilino)pyridinium]dibromide]
IC50 (Human ChoK; [1]): 0.42 µM | IC50 (HT-29 cells): 2.2 µM

1,1′-(biphenyl-3,3′-diylmethylene)bis[4-(3,5-dichloro-N-methylanilino)pyridinium]dibromide [Compound 4]
IC50 (HT-29 cells): 1.8 µM

Clc1ccc2c(N3CCCC3)cc[n+](Cc3ccc(CCc4ccc(C[n+]5ccc(N6CCCC6)c6ccc(Cl)cc65)cc4)cc3)c2c1 [EC5, reference compound]
IC50 (Human ChoK; [1]): 1 µM | IC50 (HT-29 cells; Homo sapiens, 144 h): 0.2 µM

Clc1ccc2c(N3CCCC3)cc[n+](Cc3cccc(-c4cccc(C[n+]5ccc(N6CCCC6)c6ccc(Cl)cc65)c4)c3)c2c1 [EC4, reference compound]
IC50 (Human ChoK; [1]): 1.2 µM | IC50 (HT-29 cells; Homo sapiens, 144 h): 0.4 µM

CN(C)c1cc[n+](Cc2ccc(CCCc3ccc(C[n+]4ccc(N(C)C)cc4)cc3)cc2)cc1 [EC6, reference compound]
IC50 (Human ChoK; [1]): 22 µM | IC50 (HT-29 cells; Homo sapiens, 144 h): 2.5 µM

CN(c1ccc(Cl)cc1)c1cc[n+](Cc2cccc(-c3cccc(C[n+]4ccc(N(C)c5ccc(Cl)cc5)c5ccccc54)c3)c2)c2ccccc12.[Br-].[Br-] [Compound 5, 1,1′-(biphenyl-3,3′-diylmethylene)bis[4-(4-chloro-N-methylanilino)quinolinium]dibromide]
IC50 (HT-29 cells): 1.6 µM

c1cc(C[n+]2ccc(N3CCCC3)cc2)cc(-c2cccc(C[n+]3ccc(N4CCCC4)cc3)c2)c1 [EC1, reference compound]
IC50 (Human ChoK; [1]): 5.8 µM
